Target: T1, EcoRV (Escherichia coli, UniProt P04390)
T1 construct: gene ecoRVR; restriction endonuclease, dosed in U/mL; homodimer (known biology)
T1 sequence (P04390 2-245): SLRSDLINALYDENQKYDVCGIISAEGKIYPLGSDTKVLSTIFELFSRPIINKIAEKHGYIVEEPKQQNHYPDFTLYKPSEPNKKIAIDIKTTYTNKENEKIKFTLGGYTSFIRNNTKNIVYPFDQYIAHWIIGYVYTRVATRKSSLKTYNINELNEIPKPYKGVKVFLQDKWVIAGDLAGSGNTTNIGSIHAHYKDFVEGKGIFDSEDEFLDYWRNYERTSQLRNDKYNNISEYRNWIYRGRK
Assay: electrochemical DNA cleavage assay (DPV of methylene blue-labelled DNA on ERGO electrode)
Type: biochemical

- IC50: 96 nM
SMILES: O=C(O)C1=CC(=C(c2ccc(O)c(C(=O)O)c2)c2ccc(O)c(C(=O)O)c2)C=CC1=O [ATA, aurintricarboxylic acid]
